Test results as given in paper PMC6961345 (Antiviral Chemistry & Chemotherapy, 2018).
Values joined by “and” are separate entries in the source; they are usually repeats but may differ in a detail not shown here. Equal entries are not always repeated.

Tested on: A/Georgia/20/2006 (H1N1) H275Y
Type: cell-based, influenza A virus

Structure (SMILES): C[n+]1ccc(C(=O)NCc2ccccc2)cc1 [enisamium, N-methyl-4-benzylcarbamidopyridinium]
- EC90: 144 µM and 286 µM
